Tested on: not listed separately
Assay: Toxicity (50% lethal dose, intravenous)
Conditions: mouse, in vivo, ddY male mice 20-25 g, read-out: LD50 (Intravenously administered mg/kg)
Excerpt: Using ddY male mice weighing 20-25 g, 50% lethal dose of each test compound when intravenously administered was obtained, the results of which are shown in Table 5.

SMILES | LD50
CC(C)=CCCC(C)=CCCC(C)=CCCC(C)=CCCC(C)=CCCC(C)=CCCC(C)=CCCC(C)=CCCC(C)=CCCC(C)=CCNc1ccc(C(=O)O)cc1 [drawing 59] | 27.7 mg/kg
CC(C)=CCCC(C)=CCCC(C)=CCCC(C)=CCCC(C)=CCCC(C)=CCCC(C)=CCCC(C)=CCCC(C)=CCCC(C)=CCNc1ccc(C(=O)O)c(O)c1 [drawing 60] | 45 mg/kg
CC(C)=CCCC(C)=CCCC(C)=CCCC(C)=CCCC(C)=CCCC(C)=CCCC(C)=CCCC(C)=CCCC(C)=CCCC(C)=CCNCc1ccc([N+](=O)[O-])cc1 [drawing 61] | > 269 mg/kg
CC(C)=CCCC(C)=CCCC(C)=CCCC(C)=CCCC(C)=CCCC(C)=CCCC(C)=CCCC(C)=CCCC(C)=CCCC(C)=CCNCc1cccc2ccccc12 [drawing 62] | 207 mg/kg
CC(C)=CCCC(C)=CCCC(C)=CCCC(C)=CCCC(C)=CCCC(C)=CCCC(C)=CCCC(C)=CCCC(C)=CCCC(C)=CCNCc1ccc(C)cc1 [drawing 63] | 123 mg/kg
CC(C)=CCCC(C)=CCCC(C)=CCCC(C)=CCCC(C)=CCCC(C)=CCCC(C)=CCCC(C)=CCCC(C)=CCCC(C)=CCNCc1ccc(Cl)cc1 [drawing 64] | 371 mg/kg
COc1ccc(CNCC=C(C)CCC=C(C)CCC=C(C)CCC=C(C)CCC=C(C)CCC=C(C)CCC=C(C)CCC=C(C)CCC=C(C)CCC=C(C)C)cc1OC [drawing 65] | 56.8 mg/kg
CC(C)=CCCC(C)=CCCC(C)=CCCC(C)=CCCC(C)=CCCC(C)=CCCC(C)=CCCC(C)=CCCC(C)=CCCC(C)=CCNC(c1ccccc1)c1ccccc1 [drawing 66] | 1180 mg/kg
CC(C)=CCCC(C)=CCCC(C)=CCCC(C)=CCCC(C)=CCCC(C)=CCCC(C)=CCCC(C)=CCCC(C)=CCCC(C)=CCNCCc1ccc(N)cc1 [drawing 67] | 28 mg/kg
COc1ccc(CNCC=C(C)CCC=C(C)CCC=C(C)CCC=C(C)CCC=C(C)CCC=C(C)CCC=C(C)CCC=C(C)CCC=C(C)CCC=C(C)C)cc1 [drawing 68] | 68 mg/kg
COc1ccc(CNCC=C(C)CCC=C(C)CCC=C(C)CCC=C(C)CCC=C(C)CCC=C(C)CCC=C(C)CCC=C(C)CCC=C(C)C)cc1OC [drawing 69] | 26 mg/kg
COc1cccc(CNCC=C(C)CCC=C(C)CCC=C(C)CCC=C(C)CCC=C(C)CCC=C(C)CCC=C(C)CCC=C(C)CCC=C(C)CCC=C(C)C)c1OC [drawing 70] | 30 mg/kg

Tested on: vaccinia virus
Assay: animal or person
Assay type: in vivo, ICR female mice
Conditions: Orthopoxvirus vaccinia, in Mus musculus, ip, 192 h, read-out: Prevention from vaccinia infection (Pock inhibition rate %)

SMILES | inhibition in vivo at 50 mg/kg
COc1ccc(CNC/C=C(\C)CCC=C(C)C)cc1OC | 10%
CC(C)=CCCC(C)=CCCC(C)=CCCC(C)=CCCC(C)=CCCC(C)=CCCC(C)=CCCC(C)=CCCC(C)=CCCC(C)=CCNc1ccc(C(=O)O)cc1 [drawing 26] | 15%
CC(C)=CCCC(C)=CCCC(C)=CCCC(C)=CCCC(C)=CCCC(C)=CCCC(C)=CCCC(C)=CCCC(C)=CCCC(C)=CCNc1ccc(C(=O)O)c(O)c1 [drawing 27] | 42.9%
CC(C)=CCCC(C)=CCCC(C)=CCCC(C)=CCCC(C)=CCCC(C)=CCCC(C)=CCCC(C)=CCCC(C)=CCCC(C)=CCNCCCc1ccccc1 [drawing 28] | 68.1%
CC(C)=CCCC(C)=CCCC(C)=CCCC(C)=CCCC(C)=CCCC(C)=CCCC(C)=CCCC(C)=CCCC(C)=CCCC(C)=CCNCc1ccc([N+](=O)[O-])cc1 [drawing 29] | 47.7%
CC(C)=CCCC(C)=CCCC(C)=CCCC(C)=CCCC(C)=CCCC(C)=CCCC(C)=CCCC(C)=CCCC(C)=CCCC(C)=CCNCc1cccc2ccccc12 [drawing 30] | 21.6%
CC(C)=CCCC(C)=CCCC(C)=CCCC(C)=CCCC(C)=CCCC(C)=CCCC(C)=CCCC(C)=CCCC(C)=CCCC(C)=CCNCc1ccc(C)cc1 [drawing 31] | 44.8%
CC(C)=CCCC(C)=CCCC(C)=CCCC(C)=CCCC(C)=CCCC(C)=CCCC(C)=CCCC(C)=CCCC(C)=CCCC(C)=CCNCc1ccc(Cl)cc1 [drawing 32] | 34%
COc1ccc(CNCC=C(C)CCC=C(C)CCC=C(C)CCC=C(C)CCC=C(C)CCC=C(C)CCC=C(C)CCC=C(C)CCC=C(C)CCC=C(C)C)cc1OC [drawing 33] | 35.4%
CC(C)=CCCC(C)=CCCC(C)=CCCC(C)=CCCC(C)=CCCC(C)=CCCC(C)=CCCC(C)=CCCC(C)=CCCC(C)=CCNC(c1ccccc1)c1ccccc1 [drawing 34] | 14.8%
CC(C)=CCCC(C)=CCCC(C)=CCCC(C)=CCCC(C)=CCCC(C)=CCCC(C)=CCCC(C)=CCCC(C)=CCCC(C)=CCNCCc1ccc(N)cc1 [drawing 35] | 64.4%
CC(C)=CCCC(C)=CCCC(C)=CCCC(C)=CCCC(C)=CCCC(C)=CCCC(C)=CCCC(C)=CCCC(C)=CCCC(C)=CCNCCCCc1ccccc1 [drawing 36] | 40.3%
COc1ccc(CCNCC=C(C)CCC=C(C)CCC=C(C)CCC=C(C)CCC=C(C)CCC=C(C)CCC=C(C)CCC=C(C)CCC=C(C)CCC=C(C)C)cc1OC [drawing 37] | 68.1%
COc1cc(CNCC=C(C)CCC=C(C)CCC=C(C)CCC=C(C)CCC=C(C)CCC=C(C)CCC=C(C)CCC=C(C)CCC=C(C)CCC=C(C)C)ccc1O [drawing 38] | 67.1%
COc1ccc(CNCC=C(C)CCC=C(C)CCC=C(C)CCC=C(C)CCC=C(C)CCC=C(C)CCC=C(C)CCC=C(C)CCC=C(C)CCC=C(C)C)cc1 [drawing 39] | 58.8%
COc1ccc(CNCC=C(C)CCC=C(C)CCC=C(C)CCC=C(C)CCC=C(C)CCC=C(C)CCC=C(C)CCC=C(C)CCC=C(C)C)cc1OC [drawing 40] | 54.1%
CC(C)=CCCC(C)=CCCC(C)=CCCC(C)=CCCC(C)=CCCC(C)=CCCC(C)=CCCC(C)=CCCC(C)=CCCC(C)=CCNCc1cccc(CN)c1 [drawing 41] | 91.4%
COc1cccc(CNCC=C(C)CCC=C(C)CCC=C(C)CCC=C(C)CCC=C(C)CCC=C(C)CCC=C(C)CCC=C(C)CCC=C(C)CCC=C(C)C)c1OC [drawing 42] | 32.5%
CC(C)=CCCC(C)=CCCC(C)=CCCC(C)=CCCC(C)=CCCC(C)=CCCC(C)=CCCC(C)=CCCC(C)=CCCC(C)=CCNCC(O)c1ccccc1 (stereo not shown) [drawing 43] | 64.4%

Tested on: Human interferon; normal diploid cells (fibroblast)
Assay: Human interferon-inducing activity (in vitro), 3H-uridine-uptake inhibition
Assay type: cell-based
Conditions: 25 n molar suspension
Experimental: Interferon was induced according to the method of Edward A. Havell et al. by treating normal diploid cells (fibroblast) originated from human being with each test compound in the form of ethanol solution diluted with PBS (-) (25 n molar suspension). Using the radioisotope microassay method of H. Ishitsuka et al., interferon was measured in terms of 3H-uridine-uptakeinhibition rate.

SMILES | Human interferon 3H uridine-uptake inhibition rate %
COc1cc(CNCC=C(C)CCC=C(C)CCC=C(C)CCC=C(C)CCC=C(C)CCC=C(C)CCC=C(C)CCC=C(C)CCC=C(C)C)cc(OC)c1OC | 21.5%
CC(C)=CCCC(C)=CCCC(C)=CCCC(C)=CCCC(C)=CCCC(C)=CCCC(C)=CCCC(C)=CCCC(C)=CCCC(C)=CCNc1ccc(C(=O)O)cc1 [drawing 71] | 12.7%
CC(C)=CCCC(C)=CCCC(C)=CCCC(C)=CCCC(C)=CCCC(C)=CCCC(C)=CCCC(C)=CCCC(C)=CCCC(C)=CCNc1ccc(C(=O)O)c(O)c1 [drawing 72] | 39.8%
CC(C)=CCCC(C)=CCCC(C)=CCCC(C)=CCCC(C)=CCCC(C)=CCCC(C)=CCCC(C)=CCCC(C)=CCCC(C)=CCNCCCc1ccccc1 [drawing 73] | 17.7%
CC(C)=CCCC(C)=CCCC(C)=CCCC(C)=CCCC(C)=CCCC(C)=CCCC(C)=CCCC(C)=CCCC(C)=CCCC(C)=CCNCc1ccc([N+](=O)[O-])cc1 [drawing 74] | 23.6%
CC(C)=CCCC(C)=CCCC(C)=CCCC(C)=CCCC(C)=CCCC(C)=CCCC(C)=CCCC(C)=CCCC(C)=CCCC(C)=CCNCc1cccc2ccccc12 [drawing 75] | 13.7%
CC(C)=CCCC(C)=CCCC(C)=CCCC(C)=CCCC(C)=CCCC(C)=CCCC(C)=CCCC(C)=CCCC(C)=CCCC(C)=CCNCc1ccc(C)cc1 [drawing 76] | 91.1%
CC(C)=CCCC(C)=CCCC(C)=CCCC(C)=CCCC(C)=CCCC(C)=CCCC(C)=CCCC(C)=CCCC(C)=CCCC(C)=CCNCc1ccc(Cl)cc1 [drawing 77] | 75.7%
COc1ccc(CNCC=C(C)CCC=C(C)CCC=C(C)CCC=C(C)CCC=C(C)CCC=C(C)CCC=C(C)CCC=C(C)CCC=C(C)CCC=C(C)C)cc1OC [drawing 78] | 77.8%
CC(C)=CCCC(C)=CCCC(C)=CCCC(C)=CCCC(C)=CCCC(C)=CCCC(C)=CCCC(C)=CCCC(C)=CCCC(C)=CCNCCCCc1ccccc1 [drawing 79] | 67.2%
COc1ccc(CCNCC=C(C)CCC=C(C)CCC=C(C)CCC=C(C)CCC=C(C)CCC=C(C)CCC=C(C)CCC=C(C)CCC=C(C)CCC=C(C)C)cc1OC [drawing 80] | 32.5%
COc1cc(CNCC=C(C)CCC=C(C)CCC=C(C)CCC=C(C)CCC=C(C)CCC=C(C)CCC=C(C)CCC=C(C)CCC=C(C)CCC=C(C)C)ccc1O [drawing 81] | 41.9%
COc1ccc(CNCC=C(C)CCC=C(C)CCC=C(C)CCC=C(C)CCC=C(C)CCC=C(C)CCC=C(C)CCC=C(C)CCC=C(C)CCC=C(C)C)cc1 [drawing 82] | 61.4%
COc1ccc(CNCC=C(C)CCC=C(C)CCC=C(C)CCC=C(C)CCC=C(C)CCC=C(C)CCC=C(C)CCC=C(C)CCC=C(C)C)cc1OC [drawing 83] | 86.9%
CC(C)=CCCC(C)=CCCC(C)=CCCC(C)=CCCC(C)=CCCC(C)=CCCC(C)=CCCC(C)=CCCC(C)=CCCC(C)=CCNCc1cccc(CN)c1 [drawing 84] | 20.2%
COc1cccc(CNCC=C(C)CCC=C(C)CCC=C(C)CCC=C(C)CCC=C(C)CCC=C(C)CCC=C(C)CCC=C(C)CCC=C(C)CCC=C(C)C)c1OC [drawing 85] | 26.6%
CC(C)=CCCC(C)=CCCC(C)=CCCC(C)=CCCC(C)=CCCC(C)=CCCC(C)=CCCC(C)=CCCC(C)=CCCC(C)=CCNCC(O)c1ccccc1 (stereo not shown) [drawing 86] | 37.6%
COc1ccc(CNCC=C(C)CCCC(C)CCCC(C)CCCC(C)C)cc1OC (stereo not shown) [drawing 87] | 1.8%

Source: patent US4514573A, “Isoprenylamine derivatives” (priority 1981, dated 1985)
